US8754118B2, “Atropisomer of pyrrole derivative” (Daiichi Sankyo Company, Limited, priority 2007, dated 2014)

Experiments:
[1] = Plasma pharmacokinetics after oral administration to cynomolgus monkeys (LC-MS/MS); format: in vivo; conditions: male cynomolgus monkey, 3 mg/kg to the stomach in 0.5% MC, fasted; for Cmax: po, read-out: Cmax: Maximum concentration
Protocol: Cynomolgus monkeys (male) were used, and the monkeys were fasted from one day before the test compound was administered. The administration sample was prepared by adding a 0.5% MC (methyl cellulose) solution to the test compound such that the dose was 3 mg/2 mL/kg. Each administration sample was administered to the stomach of the cynomolgus monkey using a tube. After the sample was administered, about 5 mL of water was administered. Each administration sample was administered to three cynomolgus monkeys in one group.
As for blood collection, about 1 mL of blood was collected from the femoral vein before administration, and […] 1, 2, 4, 6, 8, 24 and 48 hours after administration using an injection syringe treated with heparin. The collected blood was centrifuged (15,000×g, […], 4° C.) to obtain plasma. The obtained plasma was stored in a freezer (−20° C.) until pretreatment.
Preparation of Standard Solution and Internal Standard (IS) Solution: Each test compound was dissolved in acetonitrile, whereby a 1 mg/mL solution of each test compound was prepared. A standard solution was prepared by diluting each compound solution with acetonitrile. Further, sodium warfarin (Wako Pure Chemical Industries, Ltd.) was dissolved in acetonitrile to prepare a 500 ng/mL IS solution. Pretreatment of Plasma Sample: 50 μL of the plasma sample was taken out and 50 μL of acetonitrile was added thereto. For a calibration curve, 50 μL of each standard solution (acetonitrile solution) was added to 50 μL of the blank plasma. To all the samples, 150 μL of the IS acetonitrile solution was added, and the mixture was stirred, and then centrifuged (about 1,800×g, 30 min, 4° C.). After filtration was performed with Sirocco Protein Precipitation Plate (Waters Corporation), the filtrate was appropriately diluted with a mobile phase to prepare an LC-MS/MS analysis sample. Determination of Test Compound: The plasma concentration of each test compound was analyzed by the LC-MS/MS method. [HPLC Analysis Conditions]
Analysis: A pharmacokinetics parameter was calculated from the plasma concentration of each agent using WinNonlin Professional (Ver. 4.0.1, Pharsight Corporation). Incidentally, Noncompartment model was used as a model for calculation of the parameter.

[2] = target: T1, human mineralocorticoid receptor (hMR) ligand-binding domain (GAL4-hMR receptor) (Homo sapiens, UniProt P08235); test: GAL4-hMR luciferase reporter assay in HEK293 cells in the presence of 1 nM aldosterone (mineralocorticoid receptor antagonistic activity); format: cell-based; conditions: for IC50: concentration giving Imax/2, HEK293, 1 nM aldosterone present, overnight incubation, read-out: ICmax50; for Imax: maximum value from the graph of relative luciferase activity, DMSO control = 0%, 1 nM aldosterone control = 100%
T1 construct: expressed in transfected cells; host or cells: HEK293
T1 sequence (P08235 726-964 limits assumed): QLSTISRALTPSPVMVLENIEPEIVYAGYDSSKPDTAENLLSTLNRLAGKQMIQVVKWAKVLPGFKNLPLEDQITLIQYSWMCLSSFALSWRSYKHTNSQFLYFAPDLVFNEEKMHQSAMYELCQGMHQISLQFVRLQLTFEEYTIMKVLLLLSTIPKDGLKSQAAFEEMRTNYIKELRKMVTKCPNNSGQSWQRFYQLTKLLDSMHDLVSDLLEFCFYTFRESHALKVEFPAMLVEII
Text: A plasmid pM-hMR-LBD which is obtained by ligation of a ligand-binding domain (LBD, corresponding to a region of about 308 amino acids at the carboxy terminus) of human mineralocorticoid receptor (hMR, NM_000901) to a DNA-binding domain (corresponding to a region of 147 amino acids at the amino terminus) of a yeast transcription factor GAL4 and expresses GAL4-hMR receptor was constructed. Using a reporter plasmid which has a sequence binding to the DNA-binding domain of GAL4 (UAS sequence) and contains a luciferase gene (such as pFR-Luc, a plasmid available from Stratagene Cloning Systems), a reporter assay was performed.
The previously obtained plasmid pM-hMR-LBD and the reporter plasmid were transfected into a human fetus-derived renal cell line HEK293 by the lipofection method. On the following day, the cells were treated with trypsin and collected. A white 96-well plate (manufactured by Costar, Inc.) was prepared, and the cells were dispensed into each well in an amount of 95 μL using a DMEM medium containing 5% FBS (fetal bovine serum) which had been treated with activated charcoal.
As for each test compound, solutions obtained by dissolving the test compound in dimethyl sulfoxide at predetermined concentrations were used, and the solutions were appropriately diluted with medium and added to the cells in the white 96-well plate to give a final concentration of 0.1%. When the test compound was added, 1 nM aldosterone was allowed to be present. A well group to which dimethyl sulfoxide was added was assigned Control 1 group; and a well group to which 1 nM aldosterone was added was assigned Control 2 group. After the addition, the plate was incubated overnight.
On the following day, the medium was removed, and a luciferase substrate (Wako Pure Chemical Industries, Ltd.) was prepared according to the package insert and added to each well in an amount of 50 μL, and then, the plate was stirred for about 30 minutes. The luminescence intensity of each well was measured using Analyst (manufactured by Molecular Devices Corporation) and taken as the luciferase activity. The luciferase activity value of Control 1 group was taken as 0%, the luciferase activity value of Control 2 group was taken as 100%, and relative luciferase activity values for the respective doses of the test compound in the test compound addition group were plotted to create a graph. From the graph, the maximum value was calculated as Imax (%), and the concentration of the test compound showing the value of Imax/2 was calculated as ICmax50 (M). In Table 1, ICmax50 values are shown.

Structure (SMILES)	AUC: Area under the plasma concentration versus time curve (0-48 hr.) [1]	Cmax [1]	IC50 [2]	Imax [2]
Cc1c(C(=O)Nc2ccc(S(C)(=O)=O)cc2)cn(C)c1-c1ccccc1C(F)(F)F (racemic) [Example 1, (+/−)-1,4-dimethyl-N-[4-(methylsulfonyl)phenyl]-5-[2-(trifluoromethyl)phenyl]-1H-pyrrole-3-carboxamide]	860 ng·h/mL	42 ng/mL	13 nM	95%
Cc1c(C(=O)Nc2ccc(S(C)(=O)=O)cc2)cn(CCO)c1-c1ccccc1C(F)(F)F (racemic) [Example 3, (+/−)-1-(2-hydroxyethyl)-4-methyl-N-[4-(methylsulfonyl)phenyl]-5-[2-(trifluoromethyl)phenyl]-1H-pyrrole-3-carboxamide]	7667 ng·h/mL	380 ng/mL	–	105%
Cc1c(C(=O)Nc2ccc(S(C)(=O)=O)cc2)cn(C)c1-c1ccccc1C(F)(F)F (single isomer, unassigned) [Isomer A, (−)-1,4-dimethyl-N-[4-(methylsulfonyl)phenyl]-5-[2-(trifluoromethyl)phenyl]-1H-pyrrole-3-carboxamide]	–	–	> 1000 nM	–
Cc1c(C(=O)Nc2ccc(S(C)(=O)=O)cc2)cn(CCO)c1-c1ccccc1C(F)(F)F (single isomer, unassigned) [Isomer C, (+)-1-(2-hydroxyethyl)-4-methyl-N-[4-(methylsulfonyl)phenyl]-5-[2-(trifluoromethyl)phenyl]-1H-pyrrole-3-carboxamide]	–	–	> 1000 nM	–
COc1ccc(-c2c(C)c(C(=O)Nc3ccc(S(C)(=O)=O)cc3)cn2CCO)c(C(F)(F)F)c1 (single isomer, unassigned) [Isomer F, (+)-1-(2-hydroxyethyl)-5-[4-methoxy-2-(trifluoromethyl)phenyl]-4-methyl-N-[4-(methylsulfonyl)phenyl]-1H-pyrrole-3-carboxamide]	–	–	> 1000 nM	–

Second part, the compound after the results:

AUC: Area under the plasma concentration versus time curve (0-48 hr.) [1]	Cmax [1]	IC50 [2]	Imax [2]	Structure (SMILES)
33 ng·h/mL	2 ng/mL	5.3 nM	97%	COc1ccc(-c2c(C)c(C(=O)Nc3ccc(S(C)(=O)=O)cc3)cn2CCO)c(C(F)(F)F)c1 (racemic) [Example 5, (+/−)-1-(2-hydroxyethyl)-5-[4-methoxy-2-(trifluoromethyl)phenyl]-4-methyl-N-[4-(methylsulfonyl)phenyl]-1H-pyrrole-3-carboxamide]
3446 ng·h/mL	184 ng/mL	2.6 nM	123%	Cc1c(C(=O)Nc2ccc(S(C)(=O)=O)cc2)cn(C)c1-c1ccccc1C(F)(F)F (single isomer, unassigned) [Isomer B, (+)-1,4-dimethyl-N-[4-(methylsulfonyl)phenyl]-5-[2-(trifluoromethyl)phenyl]-1H-pyrrole-3-carboxamide]
26390 ng·h/mL	1330 ng/mL	2.4 nM	99%	Cc1c(C(=O)Nc2ccc(S(C)(=O)=O)cc2)cn(CCO)c1-c1ccccc1C(F)(F)F (single isomer, unassigned) [Isomer D, (−)-1-(2-hydroxyethyl)-4-methyl-N-[4-(methylsulfonyl)phenyl]-5-[2-(trifluoromethyl)phenyl]-1H-pyrrole-3-carboxamide]
7187 ng·h/mL	681 ng/mL	1.8 nM	115%	COc1ccc(-c2c(C)c(C(=O)Nc3ccc(S(C)(=O)=O)cc3)cn2CCO)c(C(F)(F)F)c1 (single isomer, unassigned) [Isomer E, (−)-1-(2-hydroxyethyl)-5-[4-methoxy-2-(trifluoromethyl)phenyl]-4-methyl-N-[4-(methylsulfonyl)phenyl]-1H-pyrrole-3-carboxamide]
